US12551573B2, “Compositions and methods for the targeting of PCSK9” (Scribe Therapeutics Inc., priority 2022, dated 2026)

Experiments:
human PCSK9 locus [1] = assay: RNA-seq: normalized PCSK9 read counts (log2FC) in transfected Huh7 cells; assay type: cell-based; settings: mRNA + gRNA scaffold 316 (v1), 6 and 26 days post-transfection, vs untreated naive
From the text: (§1) Seeded Huh7 cells were transfected with mRNA encoding a catalytically-active CasX 676, dXR1, or LTRP5-ADD-ZIM3 and a gRNA with scaffold 316 and a spacer targeting the PCSK9 locus. Cells were harvested at 6 and 26 days post-transfection and subsequently lysed and stored in DNA/RNA Shield (Zymo Research). As an additional control, untreated, naïve cells were also harvested. The collected samples were subjected to gDNA/RNA extraction using the Quick-DNA/RNA Miniprep Plus kit (Zymo Research). RNA samples were used for total RNA sequencing (RNA-seq), which was performed by a third-party. Raw FASTQ files were received and processed with FASTQC, and adapters were trimmed using Trim Galore. Transcript expression was then quantified against the hg38 genome using Salmon to generate normalized counts for each gene (transcripts per million, or TPM). Differential expression analysis was performed using DESeq2. Genes with fewer than 10 counts in all samples were omitted from analysis, and all pairwise comparisons (e.g., differential gene expression analyses between untreated and treated conditions at the two individual timepoints) were done with significance thresholds of |log 2FC|>2 and adjusted p-value<0.001.

human PCSK9 locus [2] = assay: Secreted PCSK9 by ELISA (normalized to total cell count) in Huh7 cells transfected with mRNA and gRNA; assay type: cell-based; settings: paired with LTRP5-ADD-ZIM3 mRNA, Huh7 cells, 6 days post-transfection; for Secreted PCSK9: normalized to total cell count; for Percent reduction in PCSK9 secretion: relative to non-targeting gRNA control; for Average percent reduction in PCSK9 secretion: averaged from the two doses
Method in brief: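 Huh7 cells were transfected with CasX or epigenetic-editor mRNA plus PCSK9- or B2M-targeting gRNA (scaffold 316). In one screen, LTRP5-ADD-ZIM3 mRNA:gRNA was given at 50:25 or 25:12.5 ng by Lipofectamine 3000. Secreted PCSK9 was measured by ELISA in supernatant 4-87 days post-transfection and normalized to total cell count.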

Huh7 cells = assay: RNA-seq: differentially regulated off-target genes in transfected Huh7 cells; assay type: cell-based, human; settings: 6 and 26 days, |log2FC|>2 and adjusted p-value<0.001, vs untreated naive
From the text: as §1

PCSK9 protein = assay: Western blot of intracellular pro-PCSK9 and processed PCSK9 in transfected HepG2 cells; assay type: cell-based, human; settings: CasX 676 mRNA #2 + gRNA, western blot densitometry, two days post-transfection
Method: (§2) To determine whether use of certain PCSK9-targeting spacers would result in potential intracellular PCSK9 retention, ˜50,000 HepG2 cells were seeded per well in a 96-well plate. CasX 676 mRNA #2 was transfected into HepG2 cells with a PCSK9-targeting gRNA using Lipofectamine™. After a media change, the following were harvested two days post-transfection: 1) media supernatant to measure secreted PCSK9 protein levels by ELISA; and 2) transfected cells for western blotting analysis to evaluate intracellular PCSK9 levels. Harvested cells were subjected to whole cell lysate extraction for western blotting analysis. Briefly, extracted protein samples were resolved by SDS-PAGE followed by immunoblotting to analyze levels of pro-PCSK9 and processed PCSK9, which were quantified by densitometry. Secreted PCSK9 levels in the media supernatant were analyzed using the BioLegend® ELISA MAX™ kit following the manufacturer's instructions. Naïve, untreated cells and cells transfected with CasX 676 mRNA #2 only served as two experimental controls.

human PCSK9 locus [3] = assay: Secreted PCSK9 by ELISA in HepG2 cells transfected with CasX 676 mRNA #2 and PCSK9-targeting gRNA; assay type: cell-based; settings: CasX 676 mRNA #2 + gRNA scaffold 316 (v1), two days post-transfection
Method: In vitro transcription of CasX 676 mRNA #2 (sequence listed in Table 28, below) was performed as described in Example 7, below. Guide RNAs using scaffold 316 and a PCSK9-targeting spacer were synthesized with a v1 modification profile (as discussed in Example 7). Spacers 6.1, 6.8, 6.86, 6.114, 6.197, and 6.203 (sequences listed in Table 24) were assessed for intracellular PCSK9 retention.
as §2, with “Naïve, untreated cells and cells transfected with CasX 676 mRNA #2 only served as two experimental controls.” left out

HBEGF locus = assay type: cell-based, human; settings: HEK293T; dCasX491 fusion, scaffold 174 spacer 34.28; 2 ng/ml diphtheria toxin for 48 hours

| Substance | PCSK9 expression (RNA-seq) (human PCSK9 locus [1]) | Secreted PCSK9 (human PCSK9 locus [2]; 25 ng mRNA:12.5 ng gRNA) | Percent reduction in PCSK9 secretion (human PCSK9 locus [2]; 25 ng mRNA:12.5 ng gRNA) | Secreted PCSK9 (human PCSK9 locus [2]; 50 ng mRNA:25 ng gRNA) | Percent reduction in PCSK9 secretion (human PCSK9 locus [2]; 50 ng mRNA:25 ng gRNA) | Average percent reduction in PCSK9 secretion (human PCSK9 locus [2]) | number of differentially regulated off-target genes (Huh7 cells) | intracellular pro-PCSK9 / intracellular protein levels (PCSK9 protein) | reduction in secreted PCSK9 levels compared to cells transfected with CasX 676 mRNA only (human PCSK9 locus [3]) | log 2 (fold change) of abundance before and after selection (HBEGF locus) |
| --- | --- | --- | --- | --- | --- | --- | --- | --- | --- | --- |
| AGGGUGUGGGUGCUUGACGC (listed as RNA, chemistry not given here) [spacer 6.154, Promoter] | durably repress PCSK9 expression through day 26 | 24.48 ng/mL | 65.64% | 6.87 ng/mL | 91.65% | 78.64% | higher number of differentially regulated off-target genes |  |  |  |
| GAGGAGGACGGCCUGGCCGA (listed as RNA, chemistry not given here) [spacer 6.1, Exon 1] |  | 32.86 ng/mL | 53.88% | 18.21 ng/mL | 77.86% | 65.87% |  | did not result in substantially increased pro-PCSK9 levels | ~50% |  |
| CACUGAAUAGCGCAGCCGCA (listed as RNA, chemistry not given here) [spacer 6.167, Intron 1] | durably repress PCSK9 expression through day 26 | 66.61 ng/mL | 6.51% | 39.55 ng/mL | 51.93% | 29.22% | higher number of differentially regulated off-target genes |  |  |  |
| AUGGUAGGCACAAGCUCAGC (listed as RNA, chemistry not given here) [spacer 6.133, Promoter] | durably repress PCSK9 expression through day 26 | 42.13 ng/mL | 40.86% | 29.45 ng/mL | 64.21% | 52.53% | lowest number of differentially regulated off-target genes |  |  |  |
| ZIM3: human ZIM3 KRAB repressor domain, SEQ ID NO: 128 [reference compound] |  |  |  |  |  |  |  |  |  | 1.7787 |
| standard ZNF10: human ZNF10 KRAB repressor domain, SEQ ID NO: 129 [reference compound] |  |  |  |  |  |  |  |  |  | 1.3637 |
